Assay results from patent US20190070113A1, “Treating Ephrin Receptor A2 (Epha2) Positive Cancer with Targeted Docetaxel-Generating Nano-Liposome Compositions” (Merrimack Pharmaceuticals, Inc., priority 2016, published 2019).
One block for each compound: values may come before it.

Columns and labels:
[1] = Hydrolysis in buffer; assay type: physicochemical; conditions: 37° C.
Description: A volume of a 10 mg/mL solution of drug in DMSO as needed to provide the desired concentration (typically 16 μL to yield a 80 μg/mL solution) (see Table 1) is placed in a glass test tube or 4 mL vial. Additional DMSO may also be added (e.g. 64 μL when using 16 μL of drug solution) to yield a final total DMSO concentration of 4%. The DMSO solutions are mixed by brief vortexing, and then 2 mL (20 mM) HEPES buffer for pH 7.5 and 2 mL of (20 mM) phosphate buffer for pH 2.5 is added and the mixture is vortexed again. The initial pH may be adjusted by addition of HCl or NaOH.
Then 100 μL aliquots of the buffer solution of drug are transferred into HPLC vials and incubated in a 37° C. water bath. The remaining solution is also incubated at 37° C. in 4 mL vials for monitoring of pH.
At each time point 900 μL of 0.1% trifluoroacetic acid (TFA) in acetonitrile (ACN) is added to the HPLC vial and the contents are vortexed. The vials are then placed in an autosampler rack at 4° C. for HPLC analysis.
Time zero data points are typically obtained from a solution of 4 μL DMSO stock in 5 mL of 0.1% TFA/ACN (8 μg/mL).
HPLC analysis is performed on a SYNERGI 4 micron Polar RP-80A, 250×4.6 mm column, using a flow rate of 1 mL./min, a 50 μL injection volume, column temperature of 25° C. and with UV detection at 227 nm. Most compounds are analyzed using a 13 min gradient (Method A) from 30 to 66% acetonitrile in aqueous 0.1% TFA, followed by a 1 min gradient back to 30% and a hold at 30% for 6 minutes. If the retention time is too long for this method, a 20 min gradient (Method B) of 30 to 90% acetonitrile, followed by a 1 min return to 30% and held for 9 min at 30% is employed.
The extent of hydrolysis is reported in Table 4 below as the % PTX or DTX formation based on relative peak areas.

[2] = test system: human ovarian patient derived model OVx-132; experiment: Combination with carboplatin in ovarian patient derived model OVx-132; assay type: in vivo, Immunodeficient mice; conditions: for growth arrest and tumor regression: docetaxel 5 mg/kg, 46scFv-ILs-DTXp3 25 mg/kg, carboplatin 60 mg/kg, combinations dosed 3 days apart, carboplatin first; for Time-to-tumor regrowth (TTR; time for tumor to double its volume): monitored 160 days
Description: Immunodeficient mice were implanted with human ovarian patient derived model OVx-132. Animals randomized into the following experimental groups: Saline, docetaxel at 5 mg/kg, 46scFv-ILs-DTXp3 at 25 mg/kg, carboplatin 60 mg/kg, carboplatin/docetaxel, and carboplatin/46scFv-ILs-DTXp3. For the combinations groups carboplatin/docetaxel and carboplatin/46scFv-ILs-DTXp3 doses used for the monotherapy arms were combined and dosed 3 days a part with carboplatin being dosed first followed by the docetaxel or 46scFv-ILs-DTXp3.
The animals received four tail vein injections, at the intervals of 7 days. Tumor size was monitored once to twice weekly.
Tumor volume(TV)=[(length)×(width)^2]/2
Maximum response was calculated using the following formula where TV is tumor volume:
Max tumor regression=[(TVmin−TVday0)/TVday0]×100
Maximum tumor regression was classified as complete tumor regression (100% regression with no palpable tumor), partial tumor regression (max tumor regression more than 30%) or no tumor regression.
Animals were monitored until tumor regrowth or end of monitoring period (>120 days). Time to regrowth was defined as time for tumor to double its volume. Animals sacrificed prior to tumor volume doubling are censored.

[3] = Short-term tolerance test of 46scFv-ILs-DTXp3 with Gemcitabine or Carboplatin; assay type: in vivo, CD-1 female mice; conditions: for histopathology: individual hepatocyte necrosis: carboplatin combo and mono, gemcitabine combo with 46scFv-ILs-DTXp3 100 mpk; for histopathology: extramedullary hematopoiesis in the spleen: carboplatin mono and combo, Gemcitabine combo with 46scFv-ILs-DTXp3 100 mpk
Description: Gemcitabine and Carboplatin are chemotherapeutic agents likely to be combined with 46scFv-ILs-DTXp3 in the clinic. Gemcitabine alone is well tolerated in mice; most protocols list an MTD for i.p. dosing around 240 mpk q3d. […] The stock concentration of 46scFv-ILs-DTXp3 was 11.09 mg/ml. Carboplatin was purchased from Hospira Inc and used at a stock concentration of 10 mg/ml. Gemcitibine was purchased from Sun Pharam and used at a stock concentration of 38 mg/ml.
CD-1 female mice (7-8 week old) were obtained from Charles River. During the treatment phase mice body weight was monitored daily. In order to assess the effect of drug scheduling on tolerability, animals were treated with a single dose of 46scFv-ILs-DTXp3 followed by a dose of either carboplatin or gemcitabine at various dose levels and starting at different timepoints post 46scFv-ILs-DTXp3 treatment (Table 3). Additionally, a single treatment group treated with carboplatin or gemcitabine was added.
At study end (10 days after last drug dose, i.e. day 10 for 8 h, day 11 for 24 h, and day 13 for 72 h combinations), mice were euthanized with carbon dioxide. Blood was collected by cardiac puncture. Catalyst analysis used an EQUINE-15 clip with an additional individual ALT assay added (Idexx, Westbrook, Mass.). Tissues collected included liver, kidney, spleen, heart, skeletal muscle (with skin attached). Tissues were fixed in 10% neutral buffered formalin ˜24 h, then stored in 70% ethanol. Tissues from mice in the highest-dose groups (all time points) as well as untreated and single-agent controls were shipped to Mass Histology Inc (Worcester, Mass.) for processing, and H&E staining of sectioned tissues. Received slides were scanned at 20X on the aperio bright field scanner.

[4] = test system: Pancreatic PDX model #15010; experiment: Efficacy in pancreatic patient derived xenograft #15010 (PDX 15010-P5)
Description: (§1) Experiments were performed according to approved guidelines. CB.17 SCID mice were obtained from Roswell Park Cancer Institute, initially at 6-8 weeks of age. Per treatment group, 8 animals were treated, unless otherwise indicated. Tumor pieces were derived from donor mice and engrafted subcutaneously. Depending on the variability in tumor growth, animals were either randomized to the different arms at one specific timepoint or a rolling randomization was performed in which a subgroup of animals were randomized through a period of time to ensure less variability in starting sizes. Animals were randomized and dosing initiated when tumors reached an average volume of 200-250 mm^3 (range 100-400 mm^3), unless otherwise indicated.
(§2) For efficacy experiments, 46scFv-ILs-DTXp3 were generated as described in composition description.
(§3) Intravenous administration of the indicated doses of each agent was initiated when tumors reached an average volume of 200-250 mm^3 and continued for a total of four weekly doses. Tumor volumes were measured once to twice weekly during the dosing cycle and until tumors regrow or reaching maximum monitoring period of 120-160 days or animals were in poor general health and needed to be sacrificed. The tumor progression was monitored by palpation and caliper measurements of the tumors along the largest (length) and smallest (width) axis twice a week. The tumor sizes were determined twice weekly from the caliper measurements using the formula (Geran, R. I., et al., 1972 Cancer Chemother. Rep. 3:1-88):
(§4) Tumor volume (TV)=[(length)×(width)^2]/2
(§5) Single tumor volume curves for each animal were plotted and two metrics that describe antitumor effects were calculated as follows:
(§6) 1) Max Response=[(minimum TV−TV at day 0)/TV at day 0]×100
(§7) 2) Time to regrowth=Time for the tumor to reach four times its initial size
(§8) All statistical analysis between treatment groups was performed using JMP v11.0 software. For treatment group comparison, two-way ANOVA analysis was performed in conjunction with post hoc Tukey HSD statistical analysis.

[5] = test system: PDX model #14244; experiment: Efficacy in patient derived xenograft #14244 (PDX 14244-9P); conditions: for maximal tumor response to drug compared to control group: both dose levels
Description: The pancreatic xenograft model series are true xenotransplant models that were directly engrafted from patient tumor resections into SCID mice for propagation and maintained by transplantation of tumor fragments (Hylander et al., 2005, 2013). […] CB.17 SCID mice were obtained from Roswell Park Cancer Institute, initially at 6-8 weeks of age. Per treatment group, 8 animals were treated, unless otherwise indicated. Tumor pieces were derived from donor mice and engrafted subcutaneously. Depending on the variability in tumor growth, animals were either randomized to the different arms at one specific timepoint or a rolling randomization was performed in which a subgroup of animals were randomized through a period of time to ensure less variability in starting sizes. Animals were randomized and dosing initiated when tumors reached an average volume of 200-250 mm^3 (range 100-400 mm^3), unless otherwise indicated.
For efficacy experiments, 46scFv-ILs-DTXp3 were generated as described in composition description. […] MM-398 was generated in house using the final commercial process.
as §3, §4, §5, §6, §7, §8
Model #14244 was maintained by passaging tumor fragments in immunodeficient mice. This PDX model was at passage 9 for study #14244-9P.

[6] = test system: #12424 PDX tumor model; experiment: Efficacy in pancreatic patient derived xenograft #12424 (PDX 12424-8P); conditions: for growth inhibition versus saline control: both dose levels (Gemcitabine 35 and 100 mg/kg; Oxaliplatin 5 and 10 mg/kg)
Description: as §1, §2
Intravenous administration of the indicated doses of each agent was initiated when tumors reached an average volume of 200-250 mm^3 and continued for a total of four weekly doses. Tumor volumes were measured once to twice weekly during the dosing cycle and until tumors regrow or reaching maximum monitoring period of 120-160 days or animals were in poor general health and needed to be sacrificed. The tumor progression was monitored by palpation and caliper measurements of the tumors along the largest (length) and smallest (width) axis twice a week.
as §4, §5, §6, §7, §8
Model #12424 was maintained by passaging tumor fragments in immunodeficient mice. This PDX model was at passage 8 for study #12424-8P.

[7] = test system: PDX 14244-10P
Description: CB.17 SCID mice were obtained from Roswell Park Cancer Institute, initially at 6-8 weeks of age. Per treatment group, 8 animals were treated, unless otherwise indicated. Tumor pieces were derived from donor mice and engrafted subcutaneously. Depending on the variability in tumor growth, animals were either randomized to the different arms at one specific timepoint or a rolling randomization was performed in which a subgroup of animals were randomized through a period of time to ensure less variability in starting sizes. Animals were randomized and dosing initiated when tumors reached an average volume of 200-250 mm^3 (range 100-400 mm^3), unless otherwise indicated.
Intravenous administration of the indicated doses of each agent was initiated when tumors reached an average volume of 200-250 mm^3 and continued for a total of four weekly doses. Tumor volumes were measured once to twice weekly during the dosing cycle and until tumors regrow or reaching maximum monitoring period of 120-160 days or animals were in poor general health and needed to be sacrificed. The tumor progression was monitored by palpation and caliper measurements of the tumors along the largest (length) and smallest (width) axis twice a week. The tumor sizes were determined twice weekly from the caliper measurements using the formula (Geran, R. I., et al., 1972 Cancer Chemother. Rep. 3:1-88): […]

[8] = mice; i.p. dosing q3d; most protocols list; cited from earlier work

SMILES: CCN(CC)CCCC(=O)O[C@@H](C(=O)O[C@H]1C[C@@]2(O)[C@@H](OC(=O)c3ccccc3)[C@@H]3[C@]4(OC(C)=O)CO[C@@H]4C[C@H](O)[C@@]3(C)C(=O)[C@H](O)C(=C1C)C2(C)C)[C@@H](NC(=O)OC(C)(C)C)c1ccccc1.Cl [Compound 3, 2′-O-(4-Diethylamino Butanoyl) DTX Hydrochloride]
Percentage of Hydrolysis (% DTX formation) ([1]; pH 2.5, 0 h): 0.00%
Percentage of Hydrolysis (% DTX formation) ([1]; pH 2.5, 5 h): 0.00%
Percentage of Hydrolysis (% DTX formation) ([1]; pH 2.5, 24 h): 0.00%
Percentage of Hydrolysis (% DTX formation) ([1]; pH 2.5, 48 h): 0.00%
Percentage of Hydrolysis (% DTX formation) ([1]; pH 2.5, 96 h): 0%
Percentage of Hydrolysis (% DTX formation) ([1]; pH 7.5, 0 h): 0.00%
Percentage of Hydrolysis (% DTX formation) ([1]; pH 7.5, 5 h): 45.76%
Percentage of Hydrolysis (% DTX formation) ([1]; pH 7.5, 24 h): 100.00%
Percentage of Hydrolysis (% DTX formation) ([1]; pH 7.5, 48 h): 100.00%
Percentage of Hydrolysis (% DTX formation) ([1]; pH 7.5, 96 h): 100%

SMILES: N.N.O=C([O-])C1(C(=O)[O-])CCC1.[Pt+2] [Carboplatin]
growth arrest and tumor regression [2]: minimal growth arrest and no tumor regression
Time-to-tumor regrowth (TTR; time for tumor to double its volume) [2]: minor delay on time to regrowth
weight loss in individual mice at day 6 ([3]; Carboplatin 84 mg/kg dosed 8 h or 24 h after 46scFv-ILs-DTXp3 100 mpk, regained weight by day 10-11): at most 10%
histopathology: individual hepatocyte necrosis ([3]; highest-dose groups): increased incidence of individual hepatocyte necrosis (minimal to mild)
histopathology: extramedullary hematopoiesis in the spleen ([3]; highest-dose groups): Increased extramedullary hematopoieisis (EMH) in the spleen
histopathology: mitotic rate in the liver ([3]; carboplatin treated groups, highest-dose groups): increase in mitotic rate in the liver

SMILES: O=C1[O][Pt]2([NH][C@@H]3CCCC[C@H]3[NH]2)[O]C1=O [Oxaliplatin]
tumor growth inhibition relative to control (time to regrowth) ([4]; 10 mg/kg): 30 days
maximal tumor response to drug versus saline control ([4]; both treatment doses): did not show a statistically significant difference from saline control
delay of regrowth over control group (time to regrowth) ([5]; 5 mg/kg): 2 days
delay of regrowth over control group (time to regrowth) ([5]; 10 mg/kg): 1 days
maximal tumor response to drug compared to control group [5]: did not demonstrate a significant tumor response to drug
growth inhibition versus saline control [6]: statistically insignificant from saline control

SMILES: O=c1[nH]cc(F)c(=O)[nH]1 [5-Fluorouracil]
inhibition of tumor growth compared to saline control (time to regrowth) ([6]; 50 mg/kg, four weekly IV doses): 12 days

SMILES: CC(=O)O[C@@]12CO[C@@H]1C[C@H](O)[C@@]1(C)C(=O)[C@H](O)C3=C(C)[C@@H](OC(=O)[C@H](O)[C@@H](NC(=O)OC(C)(C)C)c4ccccc4)C[C@@](O)([C@@H](OC(=O)c4ccccc4)[C@H]21)C3(C)C [docetaxel]
growth arrest and tumor regression [2]: minimal growth arrest and no tumor regression
Time-to-tumor regrowth (TTR; time for tumor to double its volume) [2]: minor delay on time to regrowth

Percentage of Hydrolysis (% DTX formation) ([1]; pH 2.5, 0 h): 0.00%
Percentage of Hydrolysis (% DTX formation) ([1]; pH 2.5, 5 h): 0.00%
Percentage of Hydrolysis (% DTX formation) ([1]; pH 2.5, 24 h): 0.00%
Percentage of Hydrolysis (% DTX formation) ([1]; pH 2.5, 48 h): 0.00%
Percentage of Hydrolysis (% DTX formation) ([1]; pH 2.5, 96 h): 0%
Percentage of Hydrolysis (% DTX formation) ([1]; pH 7.5, 0 h): 0.00%
Percentage of Hydrolysis (% DTX formation) ([1]; pH 7.5, 5 h): 76.07%
Percentage of Hydrolysis (% DTX formation) ([1]; pH 7.5, 24 h): 100.00%
Percentage of Hydrolysis (% DTX formation) ([1]; pH 7.5, 48 h): 100.00%
Percentage of Hydrolysis (% DTX formation) ([1]; pH 7.5, 96 h): 100%
SMILES: CC(=O)O[C@@]12CO[C@@H]1C[C@H](O)[C@@]1(C)C(=O)[C@H](O)C3=C(C)[C@@H](OC(=O)[C@H](OC(=O)CCCN(C)C)[C@@H](NC(=O)OC(C)(C)C)c4ccccc4)C[C@@](O)([C@@H](OC(=O)c4ccccc4)[C@H]21)C3(C)C.Cl [Compound 4]

SMILES: Nc1ccn([C@@H]2O[C@H](CO)[C@@H](O)C2(F)F)c(=O)n1 [Gemcitabine]
time to regrowth: growth inhibition ([7]; 100 mg/kg): 21.9 days
maximal response to therapy (tumor response) ([7]; Gemcitabine monotherapy (100 mg/kg)): 42.11%
maximal response: decrease in tumor volume ([4]; 35 mg/kg): 27%
tumor growth inhibition relative to control (time to regrowth) ([4]; 35 mg/kg): 27 days
maximal response: decrease in tumor volume ([4]; 100 mg/kg): 37%
tumor growth inhibition relative to control (time to regrowth) ([4]; 100 mg/kg): 37 days
MTD [8]: around 240 mpk
delay of regrowth compared to saline (time to regrowth) ([5]; 35 mg/kg): two
delay of regrowth compared to saline (time to regrowth) ([5]; 100 mg/kg): 18 days
maximal tumor response to drug compared to control group [5]: did not demonstrate a significant tumor response to drug
growth (body weight) ([3]; Gemcitabine 292 mg/kg, 72 h post-46scFv-ILs-DTXp3): least growth of the 292 mg/kg groups
ALT and AST ([3]; Gemcitabine 292 mg/kg, 72 h post-46scFv-ILs-DTXp3, study end): elevated ALT and AST at study end
histopathology: individual hepatocyte necrosis ([3]; highest-dose groups): increased incidence of individual hepatocyte necrosis (minimal to mild)
histopathology: extramedullary hematopoiesis in the spleen ([3]; highest-dose groups): Increased extramedullary hematopoieisis (EMH) in the spleen
toxicity (weight loss or catalyst enzyme profiling different than control mice) ([3]; mice, following an i.v. dose for 10 days, doses as high as 291.6 mg/kg): did not find toxicity
growth inhibition versus saline control [6]: statistically insignificant from saline control
